Reference: patent US20240293413A1, “COMPOUND AND METHOD FOR TREATING CHEMOTHERAPY-RELATED GASTROINTESTINAL SIDE EFFECTS” (ONQUALITY PHARMACEUTICALS CHINA LTD., priority 2021, published 2024)

How the values were obtained:
[1] = system: constipation caused by a chemotherapeutic agent in Balb/c mice; test: Examples 406-443 (Table 8): various administration modes of the CDK inhibitor, relief of constipation caused by a chemotherapeutic agent; type: in vivo; settings: for Relative remission rate of oral administration: CDK inhibitor oral 150 mg/kg single;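 on all read-outs here: percent of treated mice relieved versus chemotherapy group by feces reduction rate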
Description: Balb/c mice were fed for 1 week, and then divided into groups. The experiment was divided into a control group, a chemotherapeutic agent group, CDK inhibitor groups (including an oral administration group of a CDK inhibitor, an intravenous injection group of a CDK inhibitor, an intraperitoneal injection group of a CDK inhibitor, an intramuscular injection group of a CDK inhibitor, a local administration group of a CDK inhibitor), each of which comprised 10 mice, to perform the administration experiment, for which the administration dosage, mode, time and frequency were shown in Table 8. The control group: being administered with the same solvent as that used in the CDK inhibitor group (the time and mode were shown in Table 8), and then being injected/intragastrically administered with the same solvent as that used in the chemotherapeutic agent group (the administration mode was shown in Table 8): the chemotherapeutic agent group: being administered with the same solvent as that used in the CDK inhibitor group (the time and mode were shown in Table 8), and then being injected/intragastrically administered with the chemotherapeutic agent (the type, administration mode and dosage were shown in Table 8): the oral administration group of the CDK inhibitor: being intragastrically administered with the CDK inhibitor (the time was shown in Table 8), and then being administered with the chemotherapeutic agent (the mode and dosage were shown in Table 8): the intravenous injection group of the CDK inhibitor: being injected with the CDK inhibitor through tail vein (the time was shown in Table 8), and then being administered with the chemotherapeutic agent (the mode and dosage were shown in Table 8): the intraperitoneal injection group of the CDK inhibitor: being intraperitoneally injected with the CDK inhibitor (the time was shown in Table 8), and then being administered with the chemotherapeutic agent (the mode and dosage were shown in Table 8): the intramuscular injection group of the CDK inhibitor: being intramuscularly injected with the CDK inhibitor (the time was shown in Table 8), and then being administered with the chemotherapeutic agent (the mode and dosage were shown in Table 8); and the local administration group of the CDK inhibitor: the hair on the abdomen of mice was shaved (about 2 cm*2 cm), being applied with the CDK inhibitor (the time was shown in Table 8), and then being administered with the chemotherapeutic agent (the mode and dosage were shown in Table 8).
Feces reduction rate (%)=(the control group−the chemotherapeutic agent group or the CDK inhibitor group)/the control group*100%
The feces amount of mice within 3 hours was observed and recorded every day.

[2] = system: diarrhea caused by a chemotherapeutic agent in Balb/c mice; test: Examples 382-405 (Table 7): various administration modes of the CDK inhibitor, relief of diarrhea caused by a chemotherapeutic agent; type: in vivo; settings: for Relative remission rate of oral administration: CDK inhibitor oral 150 mg/kg single
Description: Balb/c mice were fed for 1 week, and then divided into groups. The experiment was divided into a control group, a chemotherapeutic agent group, CDK inhibitor groups (including an oral administration group of a CDK inhibitor, an intraperitoneal injection group of a CDK inhibitor, an intramuscular injection group of a CDK inhibitor, a local administration group of a CDK inhibitor), each of which comprised 10 mice, to perform the administration experiment, for which the administration dosage, mode, time and frequency were shown in Table 7. The control group: being administered with the same solvent as that used in the CDK inhibitor group (the time and mode were shown in Table 7), and then being injected/intragastrically administered with the same solvent as that used in the chemotherapeutic agent group (the administration mode was shown in Table 7): the chemotherapeutic agent group: being administered with the same solvent as that used in the CDK inhibitor group (the time and mode were shown in Table 7), and then being injected/intragastrically administered with the chemotherapeutic agent (the type, administration mode and dosage were shown in Table 7): the oral administration group of the CDK inhibitor: being intragastrically administered with the CDK inhibitor (the time was shown in Table 7), and then being administered with the chemotherapeutic agent (the mode and dosage were shown in Table 7): the intraperitoneal injection group of the CDK inhibitor: being intraperitoneally injected with the CDK inhibitor (the time was shown in Table 7), and then being administered with the chemotherapeutic agent (the mode and dosage were shown in Table 7): the intramuscular injection group of the CDK inhibitor: being intramuscularly injected with the CDK inhibitor (the time was shown in Table 7), and then being administered with the chemotherapeutic agent (the mode and dosage were shown in Table 7); and the local administration group of the CDK inhibitor: the hair on the abdomen of mice was shaved (about 2 cm*2 cm), being applied with the CDK inhibitor (the time was shown in Table 7), and then being administered with the chemotherapeutic agent (the mode and dosage were shown in Table 7).
The diarrhea grading of mice was observed and recorded every day.

CCN1CCN(Cc2ccc(Nc3ncc(F)c(-c4cc(F)c5nc(C)n(C(C)C)c5c4)n3)nc2)CC1 [Abemaciclib]
Relative remission rate of other administration mode ([1]; Example 429, Carboplatin intravenous injection 120 mg/kg single, CDK inhibitor intramuscular injection 150 mg/kg single, 8 h before, cycle 10 days): 20% | Relative remission rate of oral administration ([1]; Example 429, Carboplatin intravenous injection 120 mg/kg single, 8 h before, cycle 10 days): 60% | Relative remission rate of other administration mode ([1]; Example 430, Gemcitabine intraperitoneal injection 120 mg/kg single, CDK inhibitor intraperitoneal injection 150 mg/kg single, 0.5 h before, cycle 8 days): 10% | Relative remission rate of oral administration ([1]; Example 430, Gemcitabine intraperitoneal injection 120 mg/kg single, 0.5 h before, cycle 8 days): 40% | Relative remission rate of other administration mode ([1]; Example 431, Gemcitabine intraperitoneal injection 120 mg/kg single, CDK inhibitor intraperitoneal injection 150 mg/kg single, 4 h before, cycle 8 days): 10% | Relative remission rate of oral administration ([1]; Example 431, Gemcitabine intraperitoneal injection 120 mg/kg single, 4 h before, cycle 8 days): 40% | Relative remission rate of other administration mode ([1]; Example 432, Gemcitabine intraperitoneal injection 120 mg/kg single, CDK inhibitor intraperitoneal injection 150 mg/kg single, 8 h before, cycle 8 days): 10% | Relative remission rate of oral administration ([1]; Example 432, Gemcitabine intraperitoneal injection 120 mg/kg single, 8 h before, cycle 8 days): 40% | Relative remission rate of other administration mode ([1]; Example 433, Gemcitabine intraperitoneal injection 120 mg/kg single, CDK inhibitor intraperitoneal injection 150 mg/kg single, 12 h before, cycle 8 days): 20% | Relative remission rate of oral administration ([1]; Example 433, Gemcitabine intraperitoneal injection 120 mg/kg single, 12 h before, cycle 8 days): 60% | Relative remission rate of other administration mode ([1]; Example 434, Gemcitabine intraperitoneal injection 120 mg/kg single, CDK inhibitor intraperitoneal injection 150 mg/kg single, 24 h before, cycle 8 days): 20% | Relative remission rate of oral administration ([1]; Example 434, Gemcitabine intraperitoneal injection 120 mg/kg single, 24 h before, cycle 8 days): 60% | Relative remission rate of other administration mode ([2]; Example 394, Carboplatin (CBP) intravenous injection 120 mg/kg single, CDK inhibitor intramuscular injection 150 mg/kg single, 8 h before, cycle 10 days): 20% | Relative remission rate of oral administration ([2]; Example 394, Carboplatin (CBP) intravenous injection 120 mg/kg single, 8 h before, cycle 10 days): 60% | Relative remission rate of other administration mode ([2]; Example 396, Gemcitabine (GEM) intraperitoneal injection 120 mg/kg single, CDK inhibitor intraperitoneal injection 150 mg/kg single, 0.5 h before, cycle 8 days): 10% | Relative remission rate of oral administration ([2]; Example 396, Gemcitabine (GEM) intraperitoneal injection 120 mg/kg single, 0.5 h before, cycle 8 days): 40% | Relative remission rate of other administration mode ([2]; Example 397, Gemcitabine (GEM) intraperitoneal injection 120 mg/kg single, CDK inhibitor intraperitoneal injection 150 mg/kg single, 4 h before, cycle 8 days): 20% | Relative remission rate of oral administration ([2]; Example 397, Gemcitabine (GEM) intraperitoneal injection 120 mg/kg single, 4 h before, cycle 8 days): 50% | Relative remission rate of other administration mode ([2]; Example 398, Gemcitabine (GEM) intraperitoneal injection 120 mg/kg single, CDK inhibitor intraperitoneal injection 150 mg/kg single, 8 h before, cycle 8 days): 30% | Relative remission rate of oral administration ([2]; Example 398, Gemcitabine (GEM) intraperitoneal injection 120 mg/kg single, 8 h before, cycle 8 days): 60% | Relative remission rate of other administration mode ([2]; Example 399, Gemcitabine (GEM) intraperitoneal injection 120 mg/kg single, CDK inhibitor intraperitoneal injection 150 mg/kg single, 12 h before, cycle 8 days): 30% | Relative remission rate of oral administration ([2]; Example 399, Gemcitabine (GEM) intraperitoneal injection 120 mg/kg single, 12 h before, cycle 8 days): 60% | Relative remission rate of other administration mode ([2]; Example 400, Gemcitabine (GEM) intraperitoneal injection 120 mg/kg single, CDK inhibitor intraperitoneal injection 150 mg/kg single, 24 h before, cycle 8 days): 10% | Relative remission rate of oral administration ([2]; Example 400, Gemcitabine (GEM) intraperitoneal injection 120 mg/kg single, 24 h before, cycle 8 days): 40%
